Experiments:
[1] = system: Human non-small cell lung cancer cell line NCI-H1975; assay: Inhibition of H1975 cell proliferation (CellTiter luminescent viability); type: cell-based; conditions: Table ID1, EGFR inhibitor-based; H1975, 96 hours; read-out: Inhibitory activity (IC50, nM) on tumor cell proliferation, H1975
Method: The tumor cells used herein were cultured in a cell culture medium listed in table 3 at 37 °C in an incubator with 5% CO2. Prior to experimentation, all cell lines used were correctly identified by STR profiling, and tested negative for mycoplasma contamination using a mycoplasma detection kit through routine screenings.
The IC50 values of the compounds of the present disclosure (including the compounds in Table 1, Table 2, and Examples 1-468) were determined using the CellTiter-Meiluncell Luminescent Cell Viability Assay Kit from Dalian Meilun Biotech Co., Ltd. The detailed procedure is as follows: Tumor cells were seeded in 96-well cell culture plates at the densities specified in Table 4. On the following day, the test compounds of the present disclosure were subjected to serial dilution. The dilution can be performed according to one of the following two methods: • (1) The first dilution method: The test compounds of the present disclosure (including the compounds in Table 1, Table 2, and Examples 1-468) were subjected to 5-fold serial dilutions starting from a highest concentration of 2000 μM, resulting in a total of 9 concentrations from high to low (2000, 400, 80, 16, 3.2, 0.64, 0.128, 0.0256, 0.00512 μM). Subsequently, 0.5 μL of the test compound dilution was transferred into the 96-well plate containing the cells, with each well containing 100 μL of cell culture medium. […] Into the 96-well plate, the diluted test compounds and corresponding detection reagents were added, resulting in final test compound concentrations of 500 nM and 10 nM, respectively. The experimental procedure is described below using the diluted 2 μM test compound as an example.
0.5 μL of the aforementioned diluted compound of the present disclosure (including the compounds in Table 1, Table 2, and Examples 1-468) was added to the seeded cells in 100 μL of medium, yielding a final test compound concentration of 10 nM. After the cells were treated with the compounds of the present disclosure for a specified period, the cell viability assay reagent was added to the culture medium according to the kit's instructions to determine cell viability. […] All controls were treated using the same procedure as the compounds of the present disclosure. The growth inhibition curves for the compounds of the present disclosure were plotted using Prism GraphPad software, and the IC50 values were calculated therefrom.

EGFR = biological target: T1, EGFR (Homo sapiens, UniProt P00533); assay: Western blot degradation of EGFR; type: cell-based; conditions: H1975 Cell; 24 hours
T1 construct: L858R/T790M in cis, heterozygous with wild type), Western blot
T1 sequence (P00533 25-1210): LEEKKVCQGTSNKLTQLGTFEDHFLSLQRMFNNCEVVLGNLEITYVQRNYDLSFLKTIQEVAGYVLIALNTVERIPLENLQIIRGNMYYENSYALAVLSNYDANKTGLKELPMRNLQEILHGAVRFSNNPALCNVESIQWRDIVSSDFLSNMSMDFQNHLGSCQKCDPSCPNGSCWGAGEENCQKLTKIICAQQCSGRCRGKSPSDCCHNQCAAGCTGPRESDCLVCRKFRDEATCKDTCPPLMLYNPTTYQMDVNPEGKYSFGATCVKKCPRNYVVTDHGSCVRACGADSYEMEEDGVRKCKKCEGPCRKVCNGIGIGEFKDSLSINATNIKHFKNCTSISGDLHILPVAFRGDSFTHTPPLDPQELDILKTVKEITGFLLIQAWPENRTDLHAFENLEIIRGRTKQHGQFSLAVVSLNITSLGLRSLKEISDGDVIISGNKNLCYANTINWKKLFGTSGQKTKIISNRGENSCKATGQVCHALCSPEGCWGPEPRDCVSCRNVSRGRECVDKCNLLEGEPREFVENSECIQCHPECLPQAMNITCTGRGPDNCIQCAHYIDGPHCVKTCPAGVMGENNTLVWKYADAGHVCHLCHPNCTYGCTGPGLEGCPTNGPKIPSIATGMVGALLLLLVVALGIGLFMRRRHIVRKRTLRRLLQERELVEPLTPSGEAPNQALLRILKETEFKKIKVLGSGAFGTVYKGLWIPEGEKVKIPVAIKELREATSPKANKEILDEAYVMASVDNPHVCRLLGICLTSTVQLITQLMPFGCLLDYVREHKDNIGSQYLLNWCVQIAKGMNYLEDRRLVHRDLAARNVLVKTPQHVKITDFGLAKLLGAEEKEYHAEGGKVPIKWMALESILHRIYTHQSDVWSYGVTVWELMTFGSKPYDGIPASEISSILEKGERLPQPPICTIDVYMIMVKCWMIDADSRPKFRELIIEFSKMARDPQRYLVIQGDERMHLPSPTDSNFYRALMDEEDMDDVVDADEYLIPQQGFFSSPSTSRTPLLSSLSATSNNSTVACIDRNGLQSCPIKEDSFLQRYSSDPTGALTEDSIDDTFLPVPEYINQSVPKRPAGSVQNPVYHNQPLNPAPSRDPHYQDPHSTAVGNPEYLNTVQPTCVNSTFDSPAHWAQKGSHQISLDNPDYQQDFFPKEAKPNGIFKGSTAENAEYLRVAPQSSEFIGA
T1 sequence (Q96SW2 whole entry partner): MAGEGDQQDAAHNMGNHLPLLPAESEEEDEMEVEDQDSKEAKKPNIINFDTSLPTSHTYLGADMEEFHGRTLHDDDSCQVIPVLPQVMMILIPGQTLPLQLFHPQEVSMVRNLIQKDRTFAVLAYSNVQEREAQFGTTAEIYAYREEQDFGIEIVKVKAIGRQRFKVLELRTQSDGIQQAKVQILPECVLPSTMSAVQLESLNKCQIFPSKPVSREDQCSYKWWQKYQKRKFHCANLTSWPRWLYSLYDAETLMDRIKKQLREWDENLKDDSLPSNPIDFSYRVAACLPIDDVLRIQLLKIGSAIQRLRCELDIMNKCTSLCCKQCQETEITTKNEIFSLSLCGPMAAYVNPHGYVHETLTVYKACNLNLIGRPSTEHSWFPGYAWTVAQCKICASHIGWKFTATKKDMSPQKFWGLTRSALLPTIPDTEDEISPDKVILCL
Method: Conventional Western blot assay was performed to evaluate the effects of the compounds of the present disclosure on the expression of target proteins in cells.
(1) Cell Seeding and Protein Harvesting: The selected cells were processed according to the cell seeding procedure and protein harvesting procedure in Table II-2.
(2) To the collected supernatant, 5×SDS sample loading buffer was added, followed by denaturation at 95 °C for 5 minutes. The denatured samples were then separated by SDS-PAGE electrophoresis on a polyacrylamide gel. Proteins were transferred to a nitrocellulose membrane (0.45 μm NC membrane), blocked with blocking buffer at room temperature for 1 hour, and subjected to antibody incubation and development procedures according to the antibody manufacturer's instructions (Cell Signaling Technology).
Half-Maximal Degradation Concentration value (the drug concentration required for degrading proteins by 50%, abbreviated as DC50) reads method: comparing the grayscale values of Western blot bands from drug-treated samples with those from blank DMSO-treated controls, and identifying the drug concentration range at which the grayscale value is half that of the DMSO-treated control bands.
DC50 values can be calculated using ImageJ software to measure grayscale values of Western blot bands from drug-treated samples. The concentration-response curve is fitted to estimate the drug concentration corresponding to half the grayscale value.
Target protein remaining (%) refers to the percentage of target protein remaining in cells after treatment with protein degrader compounds.
Calculation method for target protein remaining (%): Use ImageJ software to measure grayscale values of Western blot bands from drug (protein degrader)-treated samples. The grayscale value of drug-treated bands is divided by that of internal control protein bands, and the resulting quotient is normalized to obtain the relative percentage of remaining target protein after protein degrader treatment.
Target protein degradation rate (%)=1−target protein remaining (%).

[2] = biological target: T2, human Cereblon WT GST-tagged protein (CRBN) (Homo sapiens, UniProt Q96SW2); assay: CRBN binding by HTRF (Cereblon binding kit); conditions: for inhibition at 0.5 µM: read-out: Inhibition Rate at 0.5 μM (%); for inhibition at 2 µM: read-out: Inhibition Rate at 2 μM (%)
T2 construct: purchased CISBIO 64BDCRBNPEH
T2 sequence (Q96SW2 whole entry): as the sequence (Q96SW2 whole entry partner) above
Outline: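 GST-tagged human Cereblon WT was incubated 3 h at room temperature with compound, thalidomide-Re tracer and Eu anti-GST antibody. Final compound concentrations were 10 to 0.00064 µM (7 points) or 2 and 0.5 µM. Inhibition rate was calculated from HTRF 665/620 nm ratios versus solvent and blank controls.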

| SMILES | IC50 [1] [nM] | Degradation of substrate protein EGFR (substrate protein remaining %) (EGFR) | further results |
| --- | --- | --- | --- |
| CN(Cc1ccc2c(c1)CN(N1CCC(=O)NC1=O)C2=O)C1CCN(c2ccc(Nc3ncc4nc(Nc5ccccc5)n(C5CCCC5)c4n3)cc2)CC1 [GT-05842, 1-(5-(((1-(4-((9-cyclopentyl-8-(phenylamino)-9H-purin-2-yl)amino)phenyl)piperidin-4-yl)(methyl)amino)methyl)-1-oxoisoindolin-2-yl)dihydropyrimidine-2,4 (1H,3H)-dione] |  | A (0%≤substrate protein remaining %≤80%) | inhibition at 0.5 µM [2]: 10 to 20%; inhibition at 2 µM [2]: 53 to 60% |
| CN(Cc1ccc2c(c1)C(=O)N(N1CCC(=O)NC1=O)C2=O)C1CCN(c2ccc(-c3cc(F)c4c(c3)C(=O)N(C(C(=O)Nc3nccs3)c3ncn5c3CCC5)C4)cc2)CC1 (centres unmarked) [GT-05196, 2-(6,7-dihydro-5H-pyrrolo[1,2-c]imidazol-1-yl)-2-(6-(4-(4-(((2-(2,4-dioxotetrahydropyrimidin-1(2H)-yl)-1,3-dioxoisoindolin-5-yl)methyl)(methyl)amino)piperidin-1-yl)phenyl)-4-fluoro-1-oxoisoindolin-2-yl)-N-(thiazol-2-yl)acetamide] | 10 to 50 |  |  |
| CC(C)n1nc(N2CCN(CC3CCN(c4ccc5c(c4)C(=O)N(N4CCC(=O)NC4=O)C5=O)CC3)CC2)c2cnc(Nc3ccnc(-c4cnn(S(=O)(=O)C5CC5)c4)n3)cc21 [GT-06073, 5-(4-((4-(6-((2-(1-(cyclopropylsulfonyl)-1H-pyrazol-4-yl)pyrimidin-4-yl)amino)-1-isopropyl-1H-pyrazolo[4,3-c]pyridin-3-yl)piperazin-1-yl)methyl)piperidin-1-yl)-2-(2,4-dioxotetrahydropyrimidin-1(2H)-yl)isoindoline-1,3-dione] |  | A (0%≤substrate protein remaining %≤80%) |  |
| CN(CC1CCN(c2ccc3c(c2)C(=O)N(N2CCC(=O)NC2=O)C3=O)CC1)C1CCN(c2ccc(Nc3ncc4nc(Nc5ccccc5)n(C5CCCC5)c4n3)cc2)CC1 [GT-05843, 5-(4-(((1-(4-((9-cyclopentyl-8-(phenylamino)-9H-purin-2-yl)amino)phenyl)piperidin-4-yl)(methyl)amino)methyl)piperidin-1-yl)-2-(2,4-dioxotetrahydropyrimidin-1(2H)-yl)isoindoline-1,3-dione] |  | A (0%≤substrate protein remaining %≤80%) |  |
| O=C1CCN(N2Cc3cc(CN4CCN(c5ccc(Nc6ncc7nc(Nc8ccccc8)n(C8CCCC8)c7n6)cc5)CC4)ccc3C2=O)C(=O)N1 [GT-05836, 1-(5-((4-(4-((9-cyclopentyl-8-(phenylamino)-9H-purin-2-yl)amino)phenyl)piperazin-1-yl)methyl)-1-oxoisoindolin-2-yl)dihydropyrimidine-2,4 (1H,3H)-dione] |  | A (0%≤substrate protein remaining %≤80%) |  |
| COc1cc(N2CCC(N3CCN(CC4CCN(c5ccc6c(c5)C(=O)N(N5CCC(=O)NC5=O)C6=O)CC4)CC3)CC2)c(C)cc1Nc1ncc(Br)c(Nc2ccc3nccnc3c2P(C)(C)=O)n1 [GT-05997, 5-(4-((4-(1-(4-((5-bromo-4-((5-(dimethylphosphoryl)quinoxalin-6-yl)amino)pyrimidin-2-yl)amino)-5-methoxy-2-methylphenyl)piperidin-4-yl)piperazin-1-yl)methyl)piperidin-1-yl)-2-(2,4-dioxotetrahydropyrimidin-1(2H)-yl)isoindoline-1,3-dione] |  | A (0%≤substrate protein remaining %≤80%) |  |

Now from value to molecule, other results behind:

| IC50 [1] [nM] | Degradation of substrate protein EGFR (substrate protein remaining %) (EGFR) | SMILES | further results |
| --- | --- | --- | --- |
| < 10 |  | O=C1CCN(N2Cc3cc(CN4C[C@H]5C[C@@H]4CN5c4ccc(-c5cc(F)c6c(c5)C(=O)N(C(C(=O)Nc5nccs5)c5ncn7c5CCC7)C6)cc4)ccc3C2=O)C(=O)N1 (stereo partly drawn) [GT-06172, 2-(6,7-dihydro-5H-pyrrolo[1,2-c]imidazol-1-yl)-2-(6-(4-((1R,4R)-5-((2-(2,4-dioxotetrahydropyrimidin-1(2H)-yl)-1-oxoisoindolin-5-yl)methyl)-2,5-diazabicyclo[2.2.1]heptan-2-yl)phenyl)-4-fluoro-1-oxoisoindolin-2-yl)-N-(thiazol-2-yl)acetamide] |  |
|  | A (0%≤substrate protein remaining %≤80%) | COC1CCN(c2nccc(Nc3cc4c(cn3)c(N3CCC(N(C)CC5CCN(c6cccc7c6C(=O)N(N6CCC(=O)NC6=O)C7=O)CC5)CC3)nn4C(C)C)n2)CC1 [GT-06119, 2-(2,4-dioxotetrahydropyrimidin-1(2H)-yl)-4-(4-(((1-(1-isopropyl-6-((2-(4-methoxypiperidin-1-yl)pyrimidin-4-yl)amino)-1H-pyrazolo[4,3-c]pyridin-3-yl)piperidin-4-yl)(methyl)amino)methyl)piperidin-1-yl)isoindoline-1,3-dione] | inhibition at 0.5 µM [2]: 10 to 20%; inhibition at 2 µM [2]: 53 to 60% |
| 100 to 130 |  | O=C1CCN(N2C(=O)c3ccc(CN4CCN(c5ccc(-c6cc(F)c7c(c6)C(=O)N(C(C(=O)Nc6nccs6)c6ncn8c6CCC8)C7)cc5)CC4)cc3C2=O)C(=O)N1 (centres unmarked) [GT-06160, 2-(6,7-dihydro-5H-pyrrolo[1,2-c]imidazol-1-yl)-2-(6-(4-(4-((2-(2,4-dioxotetrahydropyrimidin-1(2H)-yl)-1,3-dioxoisoindolin-5-yl)methyl)piperazin-1-yl)phenyl)-4-fluoro-1-oxoisoindolin-2-yl)-N-(thiazol-2-yl)acetamide] |  |
| 50 to 100 |  | O=C1CCN(N2C(=O)c3ccc(CN4C[C@H]5C[C@@H]4CN5c4ccc(-c5cc(F)c6c(c5)C(=O)N(C(C(=O)Nc5nccs5)c5ncn7c5CCC7)C6)cc4)cc3C2=O)C(=O)N1 (stereo partly drawn) [GT-06173, 2-(6,7-dihydro-5H-pyrrolo[1,2-c]imidazol-1-yl)-2-(6-(4-((1R,4R)-5-((2-(2,4-dioxotetrahydropyrimidin-1(2H)-yl)-1,3-dioxoisoindolin-5-yl)methyl)-2,5-diazabicyclo[2.2.1]heptan-2-yl)phenyl)-4-fluoro-1-oxoisoindolin-2-yl)-N-(thiazol-2-yl)acetamide] |  |
| 1000 to 5000 |  | C#Cc1cccc(Nc2ncnc3cc(OCCOC)c(OCCOC)cc23)c1 [erlotinib, Erlotinib, reference compound] |  |
| < 10 |  | O=C1CCN(N2Cc3cc(CN4C5CCC4CN(c4ccc(-c6cc(F)c7c(c6)C(=O)N(C(C(=O)Nc6nccs6)c6ncn8c6CCC8)C7)cc4)C5)ccc3C2=O)C(=O)N1 (centres unmarked) [GT-06250, 2-(6,7-dihydro-5H-pyrrolo[1,2-c]imidazol-1-yl)-2-(6-(4-(8-((2-(2,4-dioxotetrahydropyrimidin-1(2H)-yl)-1-oxoisoindolin-5-yl)methyl)-3,8-diazabicyclo[3.2.1]octan-3-yl)phenyl)-4-fluoro-1-oxoisoindolin-2-yl)-N-(thiazol-2-yl)acetamide] |  |
|  | A (0%≤substrate protein remaining %≤80%) | CC(C)n1nc(N2CCC(N3CCN(Cc4ccc5c(c4)CN(N4CCC(=O)NC4=O)C5=O)CC3)CC2)c2cnc(Nc3ccnc(-c4cnn(S(=O)(=O)C5CC5)c4)n3)cc21 [GT-06077, 1-(5-((4-(1-(6-((2-(1-(cyclopropylsulfonyl)-1H-pyrazol-4-yl)pyrimidin-4-yl)amino)-1-isopropyl-1H-pyrazolo[4,3-c]pyridin-3-yl)piperidin-4-yl)piperazin-1-yl)methyl)-1-oxoisoindolin-2-yl)dihydropyrimidine-2,4 (1H,3H)-dione] |  |
